# Assay: recombinant UMI read abundance after kanamycin selection (control-corrected) (log10(CPM+1)); higher = more efficient recombination; extreme values may be limits of the assay; sequences stand for … in AGTGCAGAGAAAATCGGCCAGTTTTCTCTGCCTGCAGTCCGCATGCCGTGGGACCCCTTGGGTTCTAACCTGTTGCCTAGATTTATGCAGCGGACTGCCTTTCTCCCAAAGTGATAAACCGG…AGGTTGGTTTCACT; site = the 11-nt donor
# Summary of the method: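 Counts of recombinant UMIs were reported as log10(CPM+1). Before that, they were converted to CPM, averaged over replicates and scaled using control-derived factors. They came from PCR across the donor–target junction after Escherichia coli carrying the pair library and target plasmid was plated on IPTG (0.07 mM) plus kanamycin, or unselected, in two replicates each.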
# 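Also: IS621 bridge recombinase in Escherichia coli cells against a fixed T5 target plasmid.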
row,Sequence,recombinant UMI read abundance (log10)
1,CGTTTGACATGGACCGGTTTTCCCGGTAATCCGTATTTGCT (site CGTTTGCCTAG),0
2,CGTTTGACATGGACCGGTTTTCCCGGTAATCCGTATTTGCT (site CGTTTGGCTAG),1.12
3,CGTTTGACATGGACCGGTTTTCCCGGTAATCCGTATTTGCT (site CGTTTGTCTAG),0
4,CGTTTGCCATGGACCGGTTTTCCCGGTAATCCGTATTTGCT (site CGTTTGACTAG),0
5,CGTTTGCCATGGACCGGTTTTCCCGGTAATCCGTATTTGCT (site CGTTTGCCTAG),0.79
6,CGTTTGCCATGGACCGGTTTTCCCGGTAATCCGTATTTGCT (site CGTTTGGCTAG),0.00559
7,CGTTTGCCATGGACCGGTTTTCCCGGTAATCCGTATTTGCT (site CGTTTGTCTAG),0
8,CGTTTGGCATGGACCGGTTTTCCCGGTAATCCGTATTTGCG (site CGTTTGGCTAG),0
9,CGTTTGGCATGGACCGGTTTTCCCGGTAATCCGTATTTGCG (site CGTTTGGCTCG),0.142
10,CGTTTGGCATGGACCGGTTTTCCCGGTAATCCGTATTTGCG (site CGTTTGGCTGG),0
11,CGTTTGGCATGGACCGGTTTTCCCGGTAATCCGTATTTGCG (site CGTTTGGCTTG),0
12,CGTTTGGCATGGACCGGTTTTCCCGGTAATCCGTATTTGCT (site AGTTTGGCTAG),0
13,CGTTTGGCATGGACCGGTTTTCCCGGTAATCCGTATTTGCT (site CATTTGGCTAG),0
14,CGTTTGGCATGGACCGGTTTTCCCGGTAATCCGTATTTGCT (site CCTTTGGCTAG),0
15,CGTTTGGCATGGACCGGTTTTCCCGGTAATCCGTATTTGCT (site CGATTGGCTAG),0
16,CGTTTGGCATGGACCGGTTTTCCCGGTAATCCGTATTTGCT (site CGCTTGGCTAG),0
17,CGTTTGGCATGGACCGGTTTTCCCGGTAATCCGTATTTGCT (site CGGTTGGCTAG),0
18,CGTTTGGCATGGACCGGTTTTCCCGGTAATCCGTATTTGCT (site CGTATGGCTAG),0.00345
19,CGTTTGGCATGGACCGGTTTTCCCGGTAATCCGTATTTGCT (site CGTCTGGCTAG),0.00793
20,CGTTTGGCATGGACCGGTTTTCCCGGTAATCCGTATTTGCT (site CGTGTGGCTAG),0.00452
21,CGTTTGGCATGGACCGGTTTTCCCGGTAATCCGTATTTGCT (site CGTTAGGCTAG),0
22,CGTTTGGCATGGACCGGTTTTCCCGGTAATCCGTATTTGCT (site CGTTCGGCTAG),0.0122
23,CGTTTGGCATGGACCGGTTTTCCCGGTAATCCGTATTTGCT (site CGTTGGGCTAG),0

row,Sequence,recombinant UMI read abundance (log10)
1,CGTTTGGCATGGACCGGTTTTCCCGGTAATCCGTATTTGCT (site CGTTTAGCTAG),0
2,CGTTTGGCATGGACCGGTTTTCCCGGTAATCCGTATTTGCT (site CGTTTCGCTAG),0
3,CGTTTGGCATGGACCGGTTTTCCCGGTAATCCGTATTTGCT (site CGTTTGACTAG),0
4,CGTTTGGCATGGACCGGTTTTCCCGGTAATCCGTATTTGCT (site CGTTTGCCTAG),0
5,CGTTTGGCATGGACCGGTTTTCCCGGTAATCCGTATTTGCT (site CGTTTGGCTAA),0.00833
6,CGTTTGGCATGGACCGGTTTTCCCGGTAATCCGTATTTGCT (site CGTTTGGCTAC),0.00533
7,CGTTTGGCATGGACCGGTTTTCCCGGTAATCCGTATTTGCT (site CGTTTGGCTAG),0
8,CGTTTGGCATGGACCGGTTTTCCCGGTAATCCGTATTTGCT (site CGTTTGGCTAT),0.00603
9,CGTTTGGCATGGACCGGTTTTCCCGGTAATCCGTATTTGCT (site CGTTTGGCTCG),0.00605
10,CGTTTGGCATGGACCGGTTTTCCCGGTAATCCGTATTTGCT (site CGTTTGGCTGG),0
11,CGTTTGGCATGGACCGGTTTTCCCGGTAATCCGTATTTGCT (site CGTTTGGCTTG),0
12,CGTTTGGCATGGACCGGTTTTCCCGGTAATCCGTATTTGCT (site CGTTTGTCTAG),0
13,CGTTTGGCATGGACCGGTTTTCCCGGTAATCCGTATTTGCT (site CGTTTTGCTAG),0
14,CGTTTGGCATGGACCGGTTTTCCCGGTAATCCGTATTTGCT (site CTTTTGGCTAG),0
15,CGTTTGGCATGGACCGGTTTTCCCGGTAATCCGTATTTGCT (site GGTTTGGCTAG),0
16,CGTTTGGCATGGACCGGTTTTCCCGGTAATCCGTATTTGCT (site TGTTTGGCTAG),0.00607
17,CTAAATGCATGGACCGGTTTTCCCGGTAATCCGTATTTGAG (site CTAAATGCTCT),2.87
18,CTAAGCACATGGACCGGTTTTCCCGGTAATCCGTATTTGCT (site CTAAGCACTAG),1.9
19,CTAAGCCCATGGACCGGTTTTCCCGGTAATCCGTATTTGAA (site CTAAGCCCTTT),1.25
20,CTAAGCGCATGGACCGGTTTTCCCGGTAATCCGTATTTGAA (site CTAAGCGCTTT),2.02
21,CTAAGTCCATGGACCGGTTTTCCCGGTAATCCGTATTTGGA (site CTAAGTCCTTC),0.16
22,CTAATAACATGGACCGGTTTTCCCGGTAATCCGTATTTGAC (site CTAATAACTGT),2.34
23,CTAATAACATGGACCGGTTTTCCCGGTAATCCGTATTTGAC (site CTAGTATCTGT),0

row,Sequence,recombinant UMI read abundance (log10)
1,CTAATAACATGGACCGGTTTTCCCGGTAATCCGTATTTGAT (site CTAATAACTAT),2.54
2,CTAATGACATGGACCGGTTTTCCCGGTAATCCGTATTTGAC (site CTAATGACTGT),1.47
3,CTAATTTCATGGACCGGTTTTCCCGGTAATCCGTATTTGCC (site CTAATTTCTGG),1.14
4,CTACAGACATGGACCGGTTTTCCCGGTAATCCGTATTTGAG (site CTACAGACTCT),1.81
5,CTACGGCCATGGACCGGTTTTCCCGGTAATCCGTATTTGCC (site CTACGGCCTGG),0.363
6,CTACGGGCATGGACCGGTTTTCCCGGTAATCCGTATTTGAG (site CTACGGGCTCT),1.72
7,CTACTACCATGGACCGGTTTTCCCGGTAATCCGTATTTGCT (site CTACTACCTAG),0.232
8,CTACTACCATGGACCGGTTTTCCCGGTAATCCGTATTTGCT (site CTCCTACCTAG),0.00711
9,CTACTACCATGGACCGGTTTTCCCGGTAATCCGTATTTGCT (site CTGCTACCTAG),0.00524
10,CTACTACCATGGACCGGTTTTCCCGGTAATCCGTATTTGCT (site CTTCTACCTAG),0
11,CTACTACCATGGACCGGTTTTCCCGGTAATCCGTATTTGGA (site CTACTAACTTC),0.0163
12,CTACTACCATGGACCGGTTTTCCCGGTAATCCGTATTTGGA (site CTACTACCTTC),0.00874
13,CTACTACCATGGACCGGTTTTCCCGGTAATCCGTATTTGGA (site CTACTAGCTTC),0.00519
14,CTACTACCATGGACCGGTTTTCCCGGTAATCCGTATTTGGA (site CTACTATCTTC),1.1
15,CTACTAGCATGGACCGGTTTTCCCGGTAATCCGTATTTGAA (site CTACTAGCTTT),1.95
16,CTACTATCATGGACCGGTTTTCCCGGTAATCCGTATTTGAC (site CTAATATCTGT),0
17,CTACTATCATGGACCGGTTTTCCCGGTAATCCGTATTTGAC (site CTACTATCTGT),2.69
18,CTACTATCATGGACCGGTTTTCCCGGTAATCCGTATTTGAC (site CTAGTATCTGT),0
19,CTACTATCATGGACCGGTTTTCCCGGTAATCCGTATTTGAC (site CTATTATCTGT),0.0113
20,CTAGAACCATGGACCGGTTTTCCCGGTAATCCGTATTTGAG (site CTAGAACCTCT),0.09
21,CTAGCAGCATGGACCGGTTTTCCCGGTAATCCGTATTTGAC (site CTAGCAGCTGT),3.18
22,CTAGCAGCATGGACCGGTTTTCCCGGTAATCCGTATTTGAC (site CTAGTATCTGT),0
